According to the supplement of paper PMC10307832:

Tests used:
Assay in all cases: relative viability (nuclei count vs DMSO), 5 days (fraction); higher = more cells survive
RAF265 + Crizotinib = compound: Cn1c(Nc2ccc(C(F)(F)F)cc2)nc2cc(Oc3ccnc(-c4ncc(C(F)(F)F)[nH]4)c3)ccc21 [RAF265] + C[C@@H](Oc1cc(-c2cnn(C3CCNCC3)c2)cnc1N)c1c(Cl)ccc(F)c1Cl [Crizotinib] (partner 1 µM)
Procedure, shortened: (§1)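 Lung cancer cell lines were seeded in 1536-well plates and dosed by pin tool the next day, with either a single drug or a fixed anchor-drug dose combined with five library-drug doses (not always all listed) spaced in √10 steps. Five days later, one step fixed the cells and stained their nuclei (final 0.05% Triton X-100, 1% formaldehyde, 1 ug/ml Hoechst), and nuclei were counted on 4× images. Relative viability is the nuclei count in treated wells divided by the count in vehicle wells, and each value is the median of duplicate plates.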

Doramapimod + Olaparib = compound: Cc1ccc(-n2nc(C(C)(C)C)cc2NC(=O)Nc2ccc(OCCN3CCOCC3)c3ccccc23)cc1 [Doramapimod] + O=C(c1cc(Cc2n[nH]c(=O)c3ccccc23)ccc1F)N1CCN(C(=O)C2CC2)CC1 [Olaparib] (partner 8 µM)
Procedure, shortened: as §1

RAF265 + Linsitinib = compound: Cn1c(Nc2ccc(C(F)(F)F)cc2)nc2cc(Oc3ccnc(-c4ncc(C(F)(F)F)[nH]4)c3)ccc21 [RAF265] + C[C@]1(O)C[C@@H](c2nc(-c3ccc4ccc(-c5ccccc5)nc4c3)c3c(N)nccn32)C1 [Linsitinib] (partner 1 µM)
Procedure, shortened: as §1

IPA-3 + Decitabine = compound: C1=CC=C2C(=C1)C=CC(=C2SSC3=C(C=CC4=CC=CC=C43)O)O [IPA-3] + Nc1ncn([C@H]2C[C@H](O)[C@@H](CO)O2)c(=O)n1 [Decitabine] (partner 2 µM)
Procedure, shortened: as §1

Cell Line	relative viability (RAF265 + Crizotinib; first compound 0.01 µM)	relative viability (RAF265 + Crizotinib; first compound 0.03162 µM)	relative viability (RAF265 + Crizotinib; first compound 0.1 µM)	relative viability (RAF265 + Crizotinib; first compound 0.3162 µM)	relative viability (RAF265 + Crizotinib; first compound 1 µM)	relative viability (Doramapimod + Olaparib; first compound 0.02 µM)	relative viability (Doramapimod + Olaparib; first compound 0.06325 µM)	relative viability (Doramapimod + Olaparib; first compound 0.2 µM)	relative viability (Doramapimod + Olaparib; first compound 0.6325 µM)	relative viability (Doramapimod + Olaparib; first compound 2 µM)	relative viability (RAF265 + Linsitinib; first compound 0.01 µM)	relative viability (RAF265 + Linsitinib; first compound 0.03162 µM)	relative viability (RAF265 + Linsitinib; first compound 0.1 µM)	relative viability (RAF265 + Linsitinib; first compound 0.3162 µM)	relative viability (RAF265 + Linsitinib; first compound 1 µM)	relative viability (IPA-3 + Decitabine; first compound 0.2 µM)	relative viability (IPA-3 + Decitabine; first compound 0.6325 µM)	relative viability (IPA-3 + Decitabine; first compound 2 µM)	relative viability (IPA-3 + Decitabine; first compound 6.325 µM)	relative viability (IPA-3 + Decitabine; first compound 20 µM)
NCI-H838	0.807	0.855	0.989	0.911	0.718	0.794	0.833	0.811	0.873	0.737	1.12	1.01	1.02	1.03	0.77	0.579	0.444	0.456	0.398	0.443
NCI-H1355	1.11	1	1.02	0.766	0.337	0.76	0.732	0.708	0.721	0.7	0.791	0.67	0.72	0.458	0.298	0.385	0.36	0.375	0.349	0.34
NCI-H1437	0.902	0.808	0.998	1.05	0.768	0.645	0.641	0.654	0.657	0.637	1.09	1.01	1.08	1	0.945	0.601	0.515	0.543	0.596	0.581
NCI-H1651	0.829	0.912	0.904	0.88	0.81	0.203	0.19	0.17	0.204	0.194	0.999	0.976	1.07	0.74	0.737	0.699	0.596	0.631	0.644	0.549
NCI-H1666	1.11	1.08	1.06	0.971	0.651	0.844	0.743	0.751	0.775	0.748	0.894	0.923	0.888	0.854	0.565	0.661	0.759	0.737	0.868	0.706
NCI-H1734	0.662	0.47	0.751	0.492	0.319	0.572	0.595	0.587	0.573	0.497	1.02	0.883	0.717	0.676	0.421	0.59	0.457	0.469	0.44	0.436
NCI-H1755	0.837	0.757	0.813	0.685	0.476	0.865	0.85	0.847	0.811	0.829	0.959	1.06	0.988	0.825	0.579	0.752	0.69	0.651	0.699	0.716
NCI-H1792	1.01	0.989	0.977	0.839	0.419	0.408	0.459	0.457	0.486	0.268	0.576	0.506	0.583	0.326	0.126	0.72	0.46		0.492	0.568
